# Calls of active or inactive are those of the source. The rule behind the calls is not given here.
# Legend:
# [1] = Cytotoxicity against human TZM-bl cells assessed as cell viability after 48 hrs by MTT assay; format: cell-based; details: for CC50 at 48 h: TZM-bl cells
# [2] = test system: Human immunodeficiency virus 1; experiment: Antiviral activity against HIV1 NL4.3 infected in human TZM-bl cells expressing CXCR4-tropic incubated for 1 hr prior to infection measured after 48 hrs by luciferase reporter gene assay; format: functional, organism-based; details: Human immunodeficiency virus 1, NL4.3, TZM-bl
# [3] = Therapeutic index, ratio of CC50 for human TZM-bl cells to IC50 for HIV1 NL4.3 infected in human TZM-bl cells; format: cell-based; details: HIV1 NL4.3 infected TZM-bl cells, read-out: Ratio CC50/IC50
# [4] = molecular target: Human immunodeficiency virus type 1 integrase (Human immunodeficiency virus 1) (UniProt Q7ZJM1); experiment: (§1) Inhibition of HIV1 integrase
# [5] = molecular target: Human immunodeficiency virus type 1 integrase (Human immunodeficiency virus 1, UniProt Q7ZJM1); experiment: as §1
# [6] = test system: Human immunodeficiency virus 1; experiment: Antiviral activity against HIV1 NL4.3 infected in human TZM-bl cells expressing CXCR4-tropic at 50 uM incubated for 1 hr prior to infection measured after 48 hrs by luciferase reporter gene assay; format: functional, organism-based
# Chain of Human immunodeficiency virus type 1 integrase (Q7ZJM1 whole entry): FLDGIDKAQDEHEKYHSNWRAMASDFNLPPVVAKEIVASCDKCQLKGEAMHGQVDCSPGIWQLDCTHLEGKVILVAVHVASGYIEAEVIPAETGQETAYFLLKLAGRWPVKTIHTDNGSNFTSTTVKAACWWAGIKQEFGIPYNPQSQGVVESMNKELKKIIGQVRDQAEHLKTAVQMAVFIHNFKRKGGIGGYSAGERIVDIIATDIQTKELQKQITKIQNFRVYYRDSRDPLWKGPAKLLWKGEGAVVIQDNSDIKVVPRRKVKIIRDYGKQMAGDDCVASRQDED
# Chain of Human immunodeficiency virus type 1 integrase (Human immunodeficiency virus 1) (Q7ZJM1 as listed by the source): as the sequence (Q7ZJM1 whole entry) above
IC50 ([2]; read-out: IC50),IC50 ([2]; read-out: pIC50 (converted)),inhibition [4],IC50 [5],SMILES,CC50 at 48 h [1],selectivity ratio [3],"CC50 ([1]; tzm, 48 h)",Activity [6]
12.3 µM,12.3 µM,Dose-dependent effect,13.4 µM,CC(C)=CCCC1=CCc2ccc(O)c(O)c2C1,138 µM,11,,
60.7 µM,60.3 µM,,,COC(=O)C12C=CC(=O)C(O)=C1CC=C(C)C2C/C=C(\C)C=O (stereo not drawn),627 µM,10,,
72.7 µM,72.4 µM,,,COC(=O)C12C=CC(=O)C(O)=C1CC=C(C)C2C/C=C(\C)CO (stereo not drawn),928 µM,13,,
171 µM,170 µM,,,COC(=O)C12C=CC(=O)C(O)=C1CC(CCC=C(C)C)=CC2 (stereo not drawn),693 µM,4,,
172 µM,170 µM,,,COC(=O)C12C=CC(=O)C(O)=C1CC(CC/C=C(\C)C=O)=CC2 (stereo not drawn),625 µM,4,,
4.6 µM,4.57 µM,Dose-dependent effect,11.1 µM,CC(C)=CCC1C(C)=CCc2c1ccc(O)c2O (stereo not drawn),211 µM,46,,
0.5 µM,0.501 µM,,,Cc1nnc(C(=O)NC(C)(C)c2nc(C(=O)NCc3ccc(F)cc3)c(O)c(=O)n2C)o1,856 µM,,,
12.4 µM,12.3 µM,Dose-dependent effect,11.5 µM,CC(C)=CCC1C(C)=CCc2c(O)ccc(O)c21 (stereo not drawn),140 µM,11,,
36.7 µM,36.3 µM,,,COC(=O)C12C=CC(=O)C(OC(C)=O)=C1CC=C(C)C2CC=C(C)C (stereo not drawn),677 µM,18,,
285 µM,282 µM,,,COC(=O)C12C=CC(=O)C(O)=C1CC(CC/C=C(\C)CO)=CC2 (stereo not drawn),383 µM,1,,
5 µM,5.01 µM,,,COC(=O)C12C=CC(=O)C(O)=C1CC=C(C)C2CC=C(C)C (stereo not drawn),56.4 µM,11,,
,,,,CC(C)=CCCC1=CCc2c(O)ccc(O)c2C1,,,Not Active,inactive
10 µM,10 µM,,,C=C(C=O)[C@@H]1C[C@@]2(C)C(=CC1=O)[C@H](OC(=O)/C(C)=C/C(C)CCCC)CC[C@@H]2C(=O)O (stereo partly drawn),,,,

# Reference: ChEMBL document CHEMBL3098125, “Synthesis, anti-HIV activity, integrase enzyme inhibition and molecular modeling of catechol, hydroquinone and quinol labdane analogs” (Bioorg Med Chem Lett, 2014)
